Data: patent publication US20220324835A1 (Nurix Therapeutics, Inc., priority 2018, published 2022)

What was measured:
T-cell [1] = test: IL-2 secretion from T-cells co-stimulated with anti-CD3 and anti-CD28 antibody (Biological Example 2); type: cell-based, human; details: Homo sapiens, T-cell, fold change over baseline, primary human total T-cells, read-out: IL-2 secretion Anti-CD3/Anti-CD28 stimulation; for fold induction at 0.3 µM: 0.3 μM Cbl-b inhibitor; for fold induction at 1 µM: 1 μM Cbl-b inhibitor; for fold induction at 4 µM: 4 μM Cbl-b inhibitor
Excerpt: (§1) Methods for experimentally determining increased T-cell activation, increased T-cell proliferation, decreased T-cell exhaustion, and/or decreased T-cell tolerance are well known in the art.
(§2) Modulation of activity of an immune cell, such as a T-cell, a B cell or a NK cell can be measured by determining a baseline value for a parameter of interest (e.g., cytokine secretion). […] A reference value then is obtained for T-cell activation after contacting or administering said Cbl-b inhibitor. The reference value is compared to the baseline value in order to determine the amount of T-cell activation due to contact or administration of the Cbl-b inhibitor or composition thereof. […] Immune cell activation can be assessed by measuring biological markers of activation such as increased cytokine secretion, increased cell surface expression of activation markers (e.g., cell surface markers), or increased phosphorylation of proteins in a downstream signaling pathway. The fold over baseline value that indicates immune cell activation can be determined for the parameter being tested and the conditions under which the immune cell were treated. For example, for measuring T-cell activation, a baseline value can be obtained from T-cells stimulated with anti-CD3 antibody in combination with anti-CD28 antibody, wherein the cells are not incubated with a Cbl-b inhibitor. […] A positive response for immune cell activation can then be determined by the obtained reference value. […]

T-cell [2] = test: IL-2 secretion from T-cells stimulated with anti-CD3 antibody alone (Biological Example 2); type: cell-based, human; details: T-cell, fold change over baseline, primary human total T-cells, read-out: IL-2 secretion Anti-CD3 stimulation; for fold induction at 1 µM: 1 μM Cbl-b inhibitor; for fold induction at 8 µM: 8 μM Cbl-b inhibitor
Excerpt: as §1
(§3) Modulation of activity of an immune cell, such as a T-cell, a B cell or a NK cell can be measured by determining a baseline value for a parameter of interest (e.g., cytokine secretion). […] A reference value then is obtained for T-cell activation after contacting or administering said Cbl-b inhibitor. The reference value is compared to the baseline value in order to determine the amount of T-cell activation due to contact or administration of the Cbl-b inhibitor or composition thereof. […] Immune cell activation can be assessed by measuring biological markers of activation such as increased cytokine secretion, increased cell surface expression of activation markers (e.g., cell surface markers), or increased phosphorylation of proteins in a downstream signaling pathway. The fold over baseline value that indicates immune cell activation can be determined for the parameter being tested and the conditions under which the immune cell were treated. For example, for measuring T-cell activation, a baseline value can be obtained from T-cells stimulated with anti-CD3 antibody in combination with anti-CD28 antibody, wherein the cells are not incubated with a Cbl-b inhibitor. […] A positive response for immune cell activation can then be determined by the obtained reference value.
(§4) In some embodiments, a baseline value can be obtained from T-cells stimulated with anti-CD3 antibody alone, wherein the cells are not incubated with a Cbl-b inhibitor. In some embodiments, a positive response for T-cell activation as measured by cytokine secretion (e.g., IL-2 secretion) by T-cells stimulated with anti-CD3 antibody alone in the presence of a Cbl-b inhibitor is at least 0.1-fold over the baseline value for cytokine secretion (e.g., IL-2 secretion) obtained from T-cells stimulated with anti-CD3 antibody alone in the absence of a Cbl-b inhibitor. In some embodiments, a positive response for T-cell activation as measured by surface marker expression (e.g., CD25 surface marker staining) by T-cells stimulated with anti-CD3 antibody alone in the presence of a Cbl-b inhibitor is at least 0.6-fold over the baseline value for surface marker expression (e.g., CD25 surface marker staining) obtained from T-cells stimulated with anti-CD3 antibody alone in the absence of a Cbl-b inhibitor.

T-cell [3] = test: CD25 cell surface staining on T-cells co-stimulated with anti-CD3 and anti-CD28 antibody (Biological Example 2); type: cell-based, human; details: Homo sapiens, T-cell, fold change over baseline, primary human total T-cells, read-out: CD25 staining Anti-CD3/Anti-CD28 stimulation; for fold induction at 0.3 µM: 0.3 μM Cbl-b inhibitor; for fold induction at 1 µM: 1 μM Cbl-b inhibitor; for fold induction at 4 µM: 4 μM Cbl-b inhibitor
Excerpt: as §1, §2

T-cell [4] = test: CD25 cell surface staining on T-cells stimulated with anti-CD3 antibody alone (Biological Example 2); type: cell-based, human; details: T-cell, fold change over baseline, primary human total T-cells, read-out: CD25 staining Anti-CD3 stimulation; for fold induction at 1 µM: 1 μM Cbl-b inhibitor; for fold induction at 8 µM: 8 μM Cbl-b inhibitor
Excerpt: as §1, §3, §4

Cbl-b = Cbl-b (Homo sapiens, UniProt Q13191); test: Cbl-b activity assay (Cbl-b inhibition assay), TR-FRET of Cbl-b interaction with UbcH5B-Ub; type: biochemical; details: assay buffer with 100 mM NaCl, 60 nM Src kinase; read-out: Cbl-b activity IC50
Outline: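 UbcH5B (C85K) conjugated to N-terminally Bodipy-Fluorescein-labeled ubiquitin served as the fluorescent partner. After compound preincubation, Src kinase (60 nM) with 1 mM ATP and 5 mM MgCl2 (final) was added for 1.5 h, followed by a further 1 h incubation. Some values were obtained with 50 mM NaCl and 30 nM Src.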

Sequence of Cbl-b (Q13191 36-427): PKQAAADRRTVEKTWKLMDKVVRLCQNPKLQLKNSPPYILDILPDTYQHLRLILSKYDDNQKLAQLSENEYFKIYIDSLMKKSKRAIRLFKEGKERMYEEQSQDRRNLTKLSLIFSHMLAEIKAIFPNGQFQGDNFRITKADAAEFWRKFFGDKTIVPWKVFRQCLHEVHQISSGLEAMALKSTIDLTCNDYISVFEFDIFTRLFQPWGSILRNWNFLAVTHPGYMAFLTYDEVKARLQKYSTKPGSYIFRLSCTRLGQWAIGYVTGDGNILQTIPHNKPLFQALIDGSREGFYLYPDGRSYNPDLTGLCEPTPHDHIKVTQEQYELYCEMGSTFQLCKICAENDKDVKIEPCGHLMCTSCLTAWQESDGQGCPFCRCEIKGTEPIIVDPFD

SMILES | fold induction at 0.3 µM (T-cell [1]) | fold induction at 1 µM (T-cell [1]) | fold induction at 4 µM (T-cell [1]) | fold induction at 1 µM (T-cell [2]) | fold induction at 8 µM (T-cell [2]) | fold induction at 0.3 µM (T-cell [3]) | fold induction at 1 µM (T-cell [3]) | fold induction at 4 µM (T-cell [3]) | fold induction at 1 µM (T-cell [4]) | fold induction at 8 µM (T-cell [4]) | IC50 (Cbl-b)
C[C@@H](Cc1nncn1C)c1cccc(NC(=O)c2cc(C3CC3)cc(C(F)(F)F)n2)c1 [Compound 322, (S)-4-Cyclopropyl-N-(3-(1-(4-methyl-4H-1,2,4-triazol-3-yl)propan-2-yl)phenyl)-6-(trifluoromethyl)picolinamide] | 1.01 to 2.5 | 1.01 to 2.5 | 1.01 to 2.5 | 0.051 to 0.1 | 0.101 to 0.15 | 1.01 to 1.3 | 1.01 to 1.3 | 1.01 to 1.3 | 0.601 to 0.8 | 0.601 to 0.8 | 301 to 1000 nM
C[C@H](Cc1nncn1C)c1cccc(NC(=O)c2coc(C(F)(F)F)n2)c1 [Compound 315, (R)-N-(3-(1-(4-Methyl-4H-1,2,4-triazol-3-yl)propan-2-yl)phenyl)-2-(trifluoromethyl)oxazole-4-carboxamide] | < 1 | 1.01 to 2.5 | 1.01 to 2.5 | 0.051 to 0.1 | 0.101 to 0.15 | 1.01 to 1.3 | 1.01 to 1.3 | 1.01 to 1.3 | 0.601 to 0.8 | 0.801 to 1 | 301 to 1000 nM
C[C@H](Cc1nncn1C)c1cc(OCCO)nc(N2Cc3c(cccc3C(F)(F)F)C2=O)c1 [Compound 359, (R)-2-(6-(2-hydroxyethoxy)-4-(1-(4-methyl-4H-1,2,4-triazol-3-yl)propan-2-yl)pyridin-2-yl)-4-(trifluoromethyl)isoindolin-1-one] | 1.01 to 2.5 | 1.01 to 2.5 | 2.51 to 5 | 0.051 to 0.1 | > 0.201 | 1.01 to 1.3 | 1.01 to 1.3 | 1.31 to 1.5 | 0.601 to 0.8 | > 1 | 301 to 1000 nM
C[C@H](Cc1nncn1C)c1cccc(NC(=O)c2cnn3cccnc23)c1 [Compound 324, (R)-N-(3-(1-(4-Methyl-4H-1,2,4-triazol-3-yl)propan-2-yl)phenyl)pyrazolo[1,5-a]pyrimidine-3-carboxamide] | 1.01 to 2.5 | 1.01 to 2.5 | 1.01 to 2.5 | 0.051 to 0.1 | 0.051 to 0.1 | < 1 | < 1 | 1.01 to 1.3 | 0.601 to 0.8 | 0.601 to 0.8 | 301 to 1000 nM
C[C@H](Cc1nncn1C)c1cccc(NC(=O)c2ccn3nccc3n2)c1 [Compound 316, (R)-N-(3-(1-(4-Methyl-4H-1,2,4-triazol-3-yl)propan-2-yl)phenyl)pyrazolo[1,5-a]pyrimidine-5-carboxamide] | 1.01 to 2.5 | 1.01 to 2.5 | 2.51 to 5 | 0.051 to 0.1 | 0.151 to 0.2 | 1.01 to 1.3 | 1.01 to 1.3 | 1.01 to 1.3 | 0.601 to 0.8 | > 1 | 301 to 1000 nM
C[C@H](Cc1nncn1C)c1cc(NC2COC2)cc(N2Cc3c(cccc3C(F)(F)F)C2=O)c1 [Compound 350, 2-{3-[(2R)-1-(4-methyl-4H-1,2,4-triazol-3-yl)propan-2-yl]-5-[(oxetan-3-yl)amino]phenyl}-4-(trifluoromethyl)-2,3-dihydro-1H-isoindol-1-one] | < 1 | 1.01 to 2.5 | 1.01 to 2.5 | 0.051 to 0.1 | 0.051 to 0.1 | 1.01 to 1.3 | 1.01 to 1.3 | 1.01 to 1.3 | 0.601 to 0.8 | 0.801 to 1 | 301 to 1000 nM
C[C@H](Cc1nncn1C)c1cccc(NC(=O)c2cc(C(F)(F)F)n[nH]2)c1 [Compound 314, (R)-N-(3-(1-(4-Methyl-4H-1,2,4-triazol-3-yl)propan-2-yl)phenyl)-3-(trifluoromethyl)-1H-pyrazole-5-carboxamide] | 1.01 to 2.5 | 1.01 to 2.5 | 1.01 to 2.5 | 0.051 to 0.1 | 0.101 to 0.15 | 1.01 to 1.3 | 1.01 to 1.3 | 1.01 to 1.3 | 0.601 to 0.8 | 0.601 to 0.8 | 301 to 1000 nM
CC1OCC1Oc1cc([C@H](C)Cc2nncn2C)cc(N2Cc3c(cccc3C(F)(F)F)C2=O)n1 (stereo partly drawn) [Compound 355, 2-(4-((R)-1-(4-methyl-4H-1,2,4-triazol-3-yl)propan-2-yl)-6-((2-methyloxetan-3-yl)oxy)pyridin-2-yl)-4-(trifluoromethyl)isoindolin-1-one] | 1.01 to 2.5 | 1.01 to 2.5 | 1.01 to 2.5 | 0.051 to 0.1 | 0.101 to 0.15 | 1.01 to 1.3 | 1.01 to 1.3 | 1.01 to 1.3 | 0.601 to 0.8 | 0.601 to 0.8 | 301 to 1000 nM
C[C@H](Cc1nncn1C)c1cccc(NC(=O)c2cn3ccnc3cn2)c1 [Compound 318, (R)-N-(3-(1-(4-Methyl-4H-1,2,4-triazol-3-yl)propan-2-yl)phenyl)imidazo[1,2-a]pyrazine-6-carboxamide] | 1.01 to 2.5 | 1.01 to 2.5 | 1.01 to 2.5 | 0.051 to 0.1 | 0.101 to 0.15 | < 1 | 1.01 to 1.3 | 1.01 to 1.3 | 0.601 to 0.8 | 0.801 to 1 | 301 to 1000 nM
C[C@H](Cc1nncn1C)c1cccc(NC(=O)c2cc3cccn3cn2)c1 [Compound 317, (R)-N-(3-(1-(4-Methyl-4H-1,2,4-triazol-3-yl)propan-2-yl)phenyl)pyrrolo[1,2-c]pyrimidine-3-carboxamide] | 1.01 to 2.5 | 1.01 to 2.5 | 1.01 to 2.5 | 0.051 to 0.1 | 0.101 to 0.15 | 1.01 to 1.3 | 1.01 to 1.3 | 1.01 to 1.3 | 0.601 to 0.8 | 0.801 to 1 | 301 to 1000 nM
